Assay results reported in patent US7960365B2, “Compounds with medicinal effects due to interaction with the glucocorticoid receptor” (N.V. Organon, priority 2006, dated 2011).

Target: T1, recombinant human-GR (GR) (Homo sapiens, UniProt P04150)
T1 construct: purchased PanVera
T1 sequence (P04150 1-777): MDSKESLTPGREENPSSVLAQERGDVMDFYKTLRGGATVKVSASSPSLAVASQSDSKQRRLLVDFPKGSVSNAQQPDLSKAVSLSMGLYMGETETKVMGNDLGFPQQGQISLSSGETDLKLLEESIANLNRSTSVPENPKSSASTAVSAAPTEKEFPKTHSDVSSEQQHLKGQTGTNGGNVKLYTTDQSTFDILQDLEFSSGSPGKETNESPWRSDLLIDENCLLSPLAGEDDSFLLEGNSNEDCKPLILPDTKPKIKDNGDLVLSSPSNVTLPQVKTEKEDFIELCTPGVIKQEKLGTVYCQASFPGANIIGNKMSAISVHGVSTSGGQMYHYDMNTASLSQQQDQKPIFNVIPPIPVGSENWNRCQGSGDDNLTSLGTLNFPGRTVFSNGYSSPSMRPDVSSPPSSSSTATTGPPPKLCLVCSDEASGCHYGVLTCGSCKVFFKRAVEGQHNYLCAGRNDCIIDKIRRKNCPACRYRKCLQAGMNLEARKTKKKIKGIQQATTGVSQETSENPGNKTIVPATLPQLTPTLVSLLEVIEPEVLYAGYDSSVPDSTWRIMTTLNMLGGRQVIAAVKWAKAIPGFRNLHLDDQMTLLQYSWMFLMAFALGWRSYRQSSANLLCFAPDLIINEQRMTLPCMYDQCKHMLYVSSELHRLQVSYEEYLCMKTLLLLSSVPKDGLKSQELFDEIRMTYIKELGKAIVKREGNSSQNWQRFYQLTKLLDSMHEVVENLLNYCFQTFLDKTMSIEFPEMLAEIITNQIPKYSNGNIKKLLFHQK
Assay: Glucocorticoid Receptor Competitor Assay kit (PanVera), fluorescence polarisation competition binding
Conditions: fluormone GS1 1 nM, GR 4 nM, 90 minutes at room temperature
Protocol: The affinity of compounds was tested using a Glucocorticoid Receptor Competitor Assay kit (PanVera®). Components of the kit were thawed from −80° C. on ice (Fluormone GS1, recombinant human-GR (GR)) or at room temperature (GR screening buffer, stabilising peptide and DTT). 10 mM test compounds were manually diluted to 20 μM then serially diluted to a final concentration range of 10 μM to 0.1 nM using the BioMek 2000 (Beckman-Coulter) into a black walled 384 welled plate (Matrix technologies). In the following order: fluormone GS1 (1 nM final concentration) is added to all wells excluding the buffer control wells, GR (4 nM final concentration) is added to all wells except minimum and buffer control wells, cortisol (10 μM final concentration) is added to fluormone GS1 control wells only, buffer is added to all wells to a final volume of 40 μl. The plate is covered and incubated at room temperature with agitation for 90 minutes. Readings were taken using the Analyst (LJL) in fluorescence polarisation reading mode. The MilliP ratio is calculated from cps readings obtained in parallel and perpendicular mode. The percent effect of the bound ligand is calculated at each concentration and the dose response curves plotted allowing the EC50 to be calculated. […]

EC50: 10 nM
SMILES: CC#C[C@]1(O)CC[C@H]2[C@@H]3CCC4=CC(=O)CCC4=C3[C@@H](c3ccc4c(c3)OCO4)C[C@@]21C [(11beta, 17beta)-11-(1,3-benzodioxol-5-yl)-17-hydroxy-17-(1-propynyl)estra-4,9-dien-3-one]
